A short description of series [1]: Solubility measured with a 80% aqueous EtOH solution. It counts as physicochemical. The settings on record: organic solvent or mixture. As for the experimental part: The solubility was measured with a 80% aqueous EtOH solution. Further, the crystals of 0.5 L-tartrate and lactate were prepared as crystallized from a crystallization solvent described in Tables below.

Series [2] in a line: Stability test of crystals (storage at 70° C., 70° C./75% RH, Xe lamp; HPLC related substances and powder X-ray diffraction). Conditions: no humidity at 70° C.
Description: A sample was stored with light-shielding under the condition of 70° C., 70° C.·75% RH for 2 weeks. The total amount of the related substance after storage was measured using HPLC, and the change in crystal forms was measured by means of powder X-ray diffraction.
The test drug was stored under the following conditions.
Initial (Stored under the cooling conditions): About 5 mg was collected with a 10 mL centrifuge tube and stored in a refrigerator.
70° C. (stored at 70° C.): About 5 mg was collected with a 10 mL centrifuge tube and stored in a mini-jet oven at 70° C. for 14 days.
70° C.·75% RH (stored at 70° C. and 75% relative humidity): About 5 mg was collected with a 10 mL centrifuge tube, a sample was put into a desiccator at 75% relative humidity in the open state, and the desiccator was stored in a mini jet oven at 70° C. for 14 days.
Xe lamp: This product was placed in a plastic Petri dish and stored for 40 hours under a Xe lamp (25° C. RH 60%, total irradiance 1,200,000 lx·h, total near-ultraviolet radiation energy 200 W·h/m^2 or more).
Initial, a product stored at 70° C. and a product stored at 70° C. and 75% RH were dissolved in a mixed solution (1:1) of MeCN for LC/water to exactly 10 mL, which was used as a sample solution.
HPLC; Detector: ultraviolet absorptiometer (wavelength measurement; 254 nm), column: Inertsil ODS-3 (particle diameter 3 μm, 2.1 mm×100 mm), column temperature: 40° C. (column thermostat vessel was used), mobile phase: Liquid A—1000 mL of water was added to perchlorate buffer at pH 2.5 {sodium perchlorate (NaClO4.H2O) (1.40 g) for dissolution, and adjusted to a pH of 2.5 with diluted perchloric acid (dilution of 100 mL of a commercially available 60% perchloric acid solution with 1900 mL of water)}. Liquid B—MeCN for LC, flow rate: 0.2 mL/min, Injection amount: 1 μL, (gradient setting: Liquid B 10% at 0.0 minutes to Liquid B 90% at 35 minutes).
Powder X-ray diffraction; tube: Cu, tube current: 300 mA, tube voltage, 50 kV, sampling width: 0.02°, scan speed: 4°/min, wavelength: 1.54056 angstroms, measured diffraction angle range (2θ): 2.5 to 40°

For `NC(=O)c1cnc2[nH]ccc2c1N[C@@H]1[C@@H]2CC3C[C@H]1C[C@@](O)(C3)C2` [Form A01, 4-{[(1R,2s,3S,5s,7s)-5-hydroxy-2-adamantyl]amino}-1H-pyrrolo[2,3-b]pyridine-5-carboxamide monohydrate, reference compound], the Solubility in series [1] is < 10000 µg/mL. Further, the “Change of crystal on storage” value in series [2] is recorded as “transition to an anhydride in a free form”.
